Results: patent US11472811B2, “Pyrazolotriazolopyrimidine derivatives as A2A receptor antagonist” (BEIGENE, LTD., priority 2018, dated 2022)

target: human A2A receptor (A2AR) (Homo sapiens (Human), UniProt P29274); test: Luciferase reporter assay (HEK293-A2AR-luc2p/CRE/Hygro cells); type: cell-based; details: 3 nM CGS21680, 5 h incubation
Procedure, shortened: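 HEK293 cells stably expressing human A2AR and a CRE-luc2P reporter were seeded in 1% FBS with 1 U/mL adenosine deaminase. After 18 h they were stimulated 5 h with 3 nM CGS21680 plus compound (0.1–10000 nM), then luciferase luminescence was read. IC50 was taken from inhibition curves, with CGS21680 alone set as 100%.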

Chain of human A2A receptor (A2AR) (P29274 whole entry): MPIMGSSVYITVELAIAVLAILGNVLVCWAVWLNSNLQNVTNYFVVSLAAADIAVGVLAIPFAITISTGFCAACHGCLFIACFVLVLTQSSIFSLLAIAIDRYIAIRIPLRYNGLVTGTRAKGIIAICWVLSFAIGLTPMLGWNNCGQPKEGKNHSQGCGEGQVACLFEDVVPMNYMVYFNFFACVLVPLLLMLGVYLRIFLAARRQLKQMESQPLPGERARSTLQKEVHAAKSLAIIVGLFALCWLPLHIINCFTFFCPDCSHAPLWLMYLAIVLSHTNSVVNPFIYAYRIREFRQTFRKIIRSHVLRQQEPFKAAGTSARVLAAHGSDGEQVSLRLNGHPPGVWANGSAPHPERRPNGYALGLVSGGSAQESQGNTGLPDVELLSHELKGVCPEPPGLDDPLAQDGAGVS

Row | IC50 [nM] | Structure (SMILES)
1 | 2.4 | C[C@](C(=O)NCc1ccccn1)(c1ccccc1)n1ncc2c1nc(N)n1nc(-c3ccco3)nc21 [Example 66B, (R)-2-(5-amino-2-(furan-2-yl)-7H-pyrazolo[4,3-e][1,2,4]triazolo[1,5-c]pyrimidin-7-yl)-2-phenyl-N-(pyridin-2-ylmethyl)propanamide]
2 | 75.5 | CC(C(=O)N[C@@H]1CCCNC1)(c1ccccc1)n1ncc2c1nc(N)n1nc(-c3ccco3)nc21 (stereo partly drawn) [Example 67, 2-(5-amino-2-(furan-2-yl)-7H-pyrazolo[4,3-e][1,2,4]triazolo[1,5-c]pyrimidin-7-yl)-2-phenyl-N—((R)-piperidin-3-yl)propanamide]
3 | 72.1 | CC(C(=O)N[C@H]1CCCNC1)(c1ccccc1)n1ncc2c1nc(N)n1nc(-c3ccco3)nc21 (stereo partly drawn) [Example 68, 2-(5-amino-2-(furan-2-yl)-7H-pyrazolo[4,3-e][1,2,4]triazolo[1,5-c]pyrimidin-7-yl)-2-phenyl-N—((S)-piperidin-3-yl)propanamide]
4 | 10.5 | CC(C(=O)N[C@H]1CC[C@](C)(O)CC1)(c1ccccc1)n1ncc2c1nc(N)n1nc(-c3ccco3)nc21 (stereo partly drawn) [Example 69, 2-(5-amino-2-(furan-2-yl)-7H-pyrazolo[4,3-e][1,2,4]triazolo[1,5-c]pyrimidin-7-yl)-(cis)-N-(4-hydroxy-4-methylcyclohexyl)-2-phenylpropanamide]
5 | 1.7 | COc1ccccc1C(C)(C(=O)NCC1(O)COC1)n1ncc2c1nc(N)n1nc(-c3ccco3)nc21 (centres unmarked) [Example 70, 2-(5-amino-2-(furan-2-yl)-7H-pyrazolo[4,3-e][1,2,4]triazolo[1,5-c]pyrimidin-7-yl)-N-((3-hydroxyoxetan-3-yl)methyl)-2-(2-methoxyphenyl)propanamide]
6 | 3.8 | CC(C(=O)NCC1(O)CCC1)(c1ccccc1)n1ncc2c1nc(N)n1nc(-c3ccco3)nc21 (centres unmarked) [Example 71, 2-(5-amino-2-(furan-2-yl)-7H-pyrazolo[4,3-e][1,2,4]triazolo[1,5-c]pyrimidin-7-yl)-N-((1-hydroxycyclobutyl)methyl)-2-phenylpropanamide]
7 | 7.8 | CC(C(=O)NCC1(O)CCCCC1)(c1ccccc1)n1ncc2c1nc(N)n1nc(-c3ccco3)nc21 (centres unmarked) [Example 72, 2-(5-amino-2-(furan-2-yl)-7H-pyrazolo[4,3-e][1,2,4]triazolo[1,5-c]pyrimidin-7-yl)-N-((1-hydroxycyclohexyl)methyl)-2-phenylpropanamide]
8 | 9.3 | CC(C(=O)NCCC1CCOCC1)(c1ccccc1)n1ncc2c1nc(N)n1nc(-c3ccco3)nc21 (centres unmarked) [Example 73, 2-(5-amino-2-(furan-2-yl)-7H-pyrazolo[4,3-e][1,2,4]triazolo[1,5-c]pyrimidin-7-yl)-2-phenyl-N-(2-(tetrahydro-2H-pyran-4-yl)ethyl)propanamide]
9 | 11.1 | CC(C(=O)NCCC1CCOC1)(c1ccccc1)n1ncc2c1nc(N)n1nc(-c3ccco3)nc21 (centres unmarked) [Example 74, 2-(5-amino-2-(furan-2-yl)-7H-pyrazolo[4,3-e][1,2,4]triazolo[1,5-c]pyrimidin-7-yl)-2-phenyl-N-(2-(tetrahydrofuran-3-yl)ethyl)propanamide]
10 | 16.9 | COCCOCCNC(=O)C(C)(c1ccccc1)n1ncc2c1nc(N)n1nc(-c3ccco3)nc21 (centres unmarked) [Example 75, 2-(5-amino-2-(furan-2-yl)-7H-pyrazolo[4,3-e][1,2,4]triazolo[1,5-c]pyrimidin-7-yl)-N-(2-(2-methoxyethoxy)ethyl)-2-phenylpropanamide]
11 | 40.4 | C[C@@](C(=O)N[C@H]1CC[C@@H](O)CC1)(c1ccccc1)n1ncc2c1nc(N)n1nc(-c3ccco3)nc21 [Example 76A, (S)-2-(5-amino-2-(furan-2-yl)-7H-pyrazolo[4,3-e][1,2,4]triazolo[1,5-c]pyrimidin-7-yl)-(cis)-N-(4-hydroxycyclohexyl)-2-phenylpropanamide]
12 | 15.3 | CC(C(=O)Nc1ccccn1)(c1ccccc1)n1ncc2c1nc(N)n1nc(-c3ccco3)nc21 (centres unmarked) [Example 77, 2-(5-amino-2-(furan-2-yl)-7H-pyrazolo[4,3-e][1,2,4]triazolo[1,5-c]pyrimidin-7-yl)-2-phenyl-N-(pyridin-2-yl)propanamide]
13 | 83.3 | Cc1nccnc1-c1nc2c3cnn(C(C)(C(=O)NCC4(O)COC4)c4ccccc4)c3nc(N)n2n1 (centres unmarked) [Example 78, 2-(5-amino-2-(3-methylpyrazin-2-yl)-7H-pyrazolo[4,3-e][1,2,4]triazolo[1,5-c]pyrimidin-7-yl)-N-((3-hydroxyoxetan-3-yl)methyl)-2-phenylpropanamide]
14 | 31 | CC(C(=O)NCC1COC1)(c1ccccc1)n1ncc2c1nc(N)n1nc(-c3ccco3)nc21 (centres unmarked) [Example 79, 2-(5-amino-2-(furan-2-yl)-7H-pyrazolo[4,3-e][1,2,4]triazolo[1,5-c]pyrimidin-7-yl)-N-(oxetan-3-ylmethyl)-2-phenylpropanamide]
15 | 9.4 | CC(C(=O)NCC1(O)CCOCC1)(c1ccccc1)n1ncc2c1nc(N)n1nc(-c3ccco3)nc21 (centres unmarked) [Example 80, 2-(5-amino-2-(furan-2-yl)-7H-pyrazolo[4,3-e][1,2,4]triazolo[1,5-c]pyrimidin-7-yl)-N-((4-hydroxytetrahydro-2H-pyran-4-yl)methyl)-2-phenylpropanamide]
16 | 120 | CNCCNC(=O)C(C)(c1ccccc1)n1ncc2c1nc(N)n1nc(-c3ccco3)nc21 (centres unmarked) [Example 81, 2-(5-amino-2-(furan-2-yl)-7H-pyrazolo[4,3-e][1,2,4]triazolo[1,5-c]pyrimidin-7-yl)-N-(2-(methylamino)ethyl)-2-phenylpropanamide]
17 | 4.5 | Nc1nc2c(cnn2C(C(=O)NCC2(O)COC2)c2ccccc2)c2nc(-c3ccco3)nn12 (centres unmarked) [Example 82, 2-(5-amino-2-(furan-2-yl)-7H-pyrazolo[4,3-e][1,2,4]triazolo[1,5-c]pyrimidin-7-yl)-N-((3-hydroxyoxetan-3-yl)methyl)-2-phenylacetamide]
18 | 11.2 | CC(C(=O)NCc1ccncc1)(c1ccccc1)n1ncc2c1nc(N)n1nc(-c3ccco3)nc21 (centres unmarked) [Example 83, 2-(5-amino-2-(furan-2-yl)-7H-pyrazolo[4,3-e][1,2,4]triazolo[1,5-c]pyrimidin-7-yl)-2-phenyl-N-(pyridin-4-ylmethyl)propenamide]
19 | 17 | CC(C(=O)NCc1cccnc1)(c1ccccc1)n1ncc2c1nc(N)n1nc(-c3ccco3)nc21 (centres unmarked) [Example 84, 2-(5-amino-2-(furan-2-yl)-7H-pyrazolo[4,3-e][1,2,4]triazolo[1,5-c]pyrimidin-7-yl)-2-phenyl-N-(pyridin-3-ylmethyl)propenamide]
20 | 7.3 | Cc1cccc(C(C)(C(=O)NCC2(O)COC2)n2ncc3c2nc(N)n2nc(-c4ccco4)nc32)c1 (centres unmarked) [Example 85, 2-(5-amino-2-(furan-2-yl)-7H-pyrazolo[4,3-e][1,2,4]triazolo[1,5-c]pyrimidin-7-yl)-N-((3-hydroxyoxetan-3-yl)methyl)-2-(m-tolyl)propanamide]
21 | 85.9 | COc1ccc(C(C)(C(=O)NCC2(O)COC2)n2ncc3c2nc(N)n2nc(-c4ccco4)nc32)cc1 (centres unmarked) [Example 86, 2-(5-amino-2-(furan-2-yl)-7H-pyrazolo[4,3-e][1,2,4]triazolo[1,5-c]pyrimidin-7-yl)-N-((3-hydroxyoxetan-3-yl)methyl)-2-(4-methoxyphenyl)propanamide]
22 | 4.9 | CC(C(=O)NCC1(O)COC1)(c1ccccc1F)n1ncc2c1nc(N)n1nc(-c3ccco3)nc21 (centres unmarked) [Example 87, 2-(5-amino-2-(furan-2-yl)-7H-pyrazolo[4,3-e][1,2,4]triazolo[1,5-c]pyrimidin-7-yl)-2-(2-fluorophenyl)-N-((3-hydroxyoxetan-3-yl)methyl)propanamide]
23 | 437 | CC(C(=O)NCC1(O)CC1)(c1ccccc1)n1ncc2c1nc(N)n1nc(-c3ccco3)nc21 (centres unmarked) [Example 88, 2-(5-amino-2-(furan-2-yl)-7H-pyrazolo[4,3-e][1,2,4]triazolo[1,5-c]pyrimidin-7-yl)-N-((1-hydroxycyclopropyl)methyl)-2-phenylpropanamide]
24 | 767 | CC(C(=O)NCC1(O)COC1)(c1cccnc1)n1ncc2c1nc(N)n1nc(-c3ccco3)nc21 (centres unmarked) [Example 89, 2-(5-amino-2-(furan-2-yl)-7H-pyrazolo[4,3-e][1,2,4]triazolo[1,5-c]pyrimidin-7-yl)-N-((3-hydroxyoxetan-3-yl)methyl)-2-(pyridin-3-yl)propanamide]
25 | 6.9 | Nc1nc2c(cnn2C(C(=O)N[C@@H]2CCC[C@@H]2O)c2ccccc2)c2nc(-c3ccco3)nn12 (stereo partly drawn) [Example 90, 2-(5-amino-2-(furan-2-yl)-7H-pyrazolo[4,3-e][1,2,4]triazolo[1,5-c]pyrimidin-7-yl)-N-((1R,2S)-2-hydroxycyclopentyl)-2-phenylacetamide]
26 | 15.1 | Nc1nc2c(cnn2C(C(=O)N[C@H]2CCCC[C@H]2O)c2ccccc2)c2nc(-c3ccco3)nn12 (stereo partly drawn) [Example 91, 2-(5-amino-2-(furan-2-yl)-7H-pyrazolo[4,3-e][1,2,4]triazolo[1,5-c]pyrimidin-7-yl)-N-((1S,2R)-2-hydroxycyclohexyl)-2-phenylacetamide]
27 | 3.8 | Nc1nc2c(cnn2C2(C(=O)NCC3(O)COC3)CCCc3ccccc32)c2nc(-c3ccco3)nn12 (centres unmarked) [Example 93, 1-(5-amino-2-(furan-2-yl)-7H-pyrazolo[4,3-e][1,2,4]triazolo[1,5-c]pyrimidin-7-yl)-N-((3-hydroxyoxetan-3-yl)methyl)-1,2,3,4-tetrahydronaphthalene-1-carboxamide]
28 | 11.2 | CC(C(=O)N[C@@H]1CC[C@@H](O)C1)(c1ccccc1)n1ncc2c1nc(N)n1nc(-c3ccco3)nc21 (stereo partly drawn) [Example 94, 2-(5-amino-2-(furan-2-yl)-7H-pyrazolo[4,3-e][1,2,4]triazolo[1,5-c]pyrimidin-7-yl)-N-((1R,3R)-3-hydroxycyclopentyl)-2-phenylpropanamide]
29 | 9.5 | CC(C(=O)N[C@H]1CC[C@H](O)C1)(c1ccccc1)n1ncc2c1nc(N)n1nc(-c3ccco3)nc21 (stereo partly drawn) [Example 95, 2-(5-amino-2-(furan-2-yl)-7H-pyrazolo[4,3-e][1,2,4]triazolo[1,5-c]pyrimidin-7-yl)-N-((1S,3S)-3-hydroxycyclopentyl)-2-phenylpropanamide]
